This is an account of results in US20250179047A1, “5-[7-(3,4-DIHYDRO-1H-ISOQUINOLINE-2-CARBONYL)-1,2,3,4 TETRAHYDROISOQUINOLIN-6-YL]-1H-PYRROLE-3-CARBOXAMIDE DERIVATIVES, PHARMACEUTICAL COMPOSITIONS CONTAINING THEM AND THEIR USES AS PRO-APOPTOTIC AGENTS” (LES LABORATOIRES SERVIER, priority 2022, published 2025).

For experiment [1], the system named is BCL2 G101V. Description: TR-FRET competitive binding assay, BCL2 G101V. Particulars: ratio Ki BCL2 G101V / Ki BCL2 WT. Also noted: species or system human. Put shortly:
(§1)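 Competitive TR-FRET displacement of fluorescein-PUMA peptide (2 or 20 nM) from 0.5 nM terbium-labelled N-terminal Halo-fusion BCL2 (1-207, wild type or mutant) or BCLXL (2-196), expressed in E. coli. Buffer 50 mM Hepes pH 7.5, 150 mM NaCl, 5% DMSO; 2 h at 23°C. 520/495 nm ratio fitted over 11 points for IC50, converted to Ki.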

Experiment [2] addresses BCL2 G101V (Homo sapiens, UniProt P10415, G101V). Description: TR-FRET competitive binding assay, BCL2 G101V. The following applies: BCL2 G101V; Ki determined from IC50; read-out: TR_FRET EKI_Bcl2 G101V. The gist of the method:
as §1

Experiment [3] deals with BCLXL WT (Homo sapiens (Human), UniProt Q07817). Briefly: TR-FRET competitive binding assay, BCLXL WT. The following applies: for Ki: BCLXL WT, Ki determined from IC50, read-out: TR_FRET EKI BclxL; for TR_FRET EKI BCLxL/WT selectivty ratio: ratio Ki BCLxL / Ki BCL2 WT. The gist of the method: as §1
The subject of experiment [4] is KMS-12-PE Bcl-2 WT. Description: In vitro cytotoxicity CellTiter-Glo 48 h, KMS-12-PE Bcl-2 WT. Particulars: Homo sapiens, KMS-12-PE, C50 = concentration needed to reach 50% of the cellular viability. It counts as cell-based. Put shortly: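 KMS-12-PE myeloma cells were lentivirally transduced with wild-type or G101V-mutant Bcl-2 and sorted by TagRFP. They were exposed to compounds as 11-point dose responses for 48 h at 37 °C, 5% CO2. Viability was read by CellTiter-Glo ATP luminescence, and C50 was the concentration giving 50% viability.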

For experiment [5], the target named is BCL2 WT (Homo sapiens (Human), UniProt P10415). Description: TR-FRET competitive binding assay, BCL2 WT. Particulars: Ki determined from IC50, read-out: TR_FRET EKI_Bcl2 WT. Put shortly:
as §1

Experiment [6] has as its target BCL2 D103Y (Homo sapiens, UniProt P10415, D103Y). Description: TR-FRET competitive binding assay, BCL2 D103Y. Particulars: Ki determined from IC50, read-out: TR_FRET EKI_Bcl2 D103Y. Put shortly:
as §1

Sequence of BCLXL WT (Q07817 other isoform, or with tags, fused parts or gaps): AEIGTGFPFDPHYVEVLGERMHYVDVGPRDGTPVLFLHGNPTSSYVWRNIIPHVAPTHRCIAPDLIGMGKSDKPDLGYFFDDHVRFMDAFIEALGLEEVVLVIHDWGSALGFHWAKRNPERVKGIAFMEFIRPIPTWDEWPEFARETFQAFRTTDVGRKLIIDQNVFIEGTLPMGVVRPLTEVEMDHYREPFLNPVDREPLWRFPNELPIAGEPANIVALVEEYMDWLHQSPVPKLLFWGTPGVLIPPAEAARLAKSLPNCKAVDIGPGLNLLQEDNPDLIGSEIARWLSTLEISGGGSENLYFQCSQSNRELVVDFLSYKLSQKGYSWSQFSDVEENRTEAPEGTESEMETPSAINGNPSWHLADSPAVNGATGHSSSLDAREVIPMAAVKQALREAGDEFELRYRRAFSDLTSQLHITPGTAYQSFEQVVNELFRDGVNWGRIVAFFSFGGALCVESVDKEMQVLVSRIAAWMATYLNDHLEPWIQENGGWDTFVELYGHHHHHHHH

Turning to `Cc1ccc(N(C(=O)c2cc(-c3cc4c(cc3C(=O)N3Cc5ccccc5C[C@H]3C)CN(C(=O)Cc3ccc(OCCN5CCOCC5)cc3F)CC4)n(C)c2C)c2ccccc2)cc1C#N` [Example 203, N-(3-cyano-4-methyl-phenyl)-5-[2-[2-[2-fluoro-4-(2-morpholinoethoxy)phenyl]acetyl]-7-[(3R)-3-methyl-3,4-dihydro-1H-isoquinoline-2-carbonyl]-3,4-dihydro-1H-isoquinolin-6-yl]-1,2-dimethyl-N-phenyl-pyrrole-3-carboxamide], the “TR_FRET EKI G101V/WT selectivty ratio” value in experiment [1] is 23.3. Also, the Ki in experiment [2] is 0.5 nM; in experiment [3], 8.5 nM; in experiment [5] it was 0.02 nM; in experiment [6] it was 0.06 nM. The “TR_FRET EKI BCLxL/WT selectivty ratio” value in experiment [3] worked out at 404.3. In experiment [4], the midpoint of inhibition, the IC50, lay at 0.0091 µM.
On to `Cc1ccc(N(C(=O)c2cc(-c3cc4c(cc3C(=O)N3Cc5ccccc5C[C@H]3C)CN(C(=O)Cc3ccc(OCCN5CCOCC5)cc3)CC4)n(C)c2C)c2ccccc2)cc1C#N` [Example 204, N-(3-cyano-4-methyl-phenyl)-1,2-dimethyl-5-[7-[(3R)-3-methyl-3,4-dihydro-1H-isoquinoline-2-carbonyl]-2-[2-[4-(2-morpholinoethoxy)phenyl]acetyl]-3,4-dihydro-1H-isoquinolin-6-yl]-N-phenyl-pyrrole-3-carboxamide], for which, in experiment [1], the “TR_FRET EKI G101V/WT selectivty ratio” value worked out at 30.8. Also, the Ki in experiment [2] worked out at 1.9 nM; in experiment [3], 9.6 nM; in experiment [5], 0.06 nM; in experiment [6] it was 0.17 nM. Also, the “TR_FRET EKI BCLxL/WT selectivty ratio” value in experiment [3] is 152.4. In experiment [4], this compound displayed an IC50 of 0.0111 µM.
Take `COC[C@@H]1Cc2ccccc2CN1C(=O)c1cc2c(cc1-c1cc(C(=O)N(c3ccccc3)c3cnn(C(F)F)c3)c(C)n1C)CCN(C(=O)Cc1ccc(OCCN3CCOCC3)cc1)C2` [Example 205, N-[1-(difluoromethyl)pyrazol-4-yl]-5-[7-[(3S)-3-(methoxymethyl)-3,4-dihydro-1H-isoquinoline-2-carbonyl]-2-[2-[4-(2-morpholinoethoxy)phenyl]acetyl]-3,4-dihydro-1H-isoquinolin-6-yl]-1,2-dimethyl-N-phenyl-pyrrole-3-carboxamide]: in experiment [1], the “TR_FRET EKI G101V/WT selectivty ratio” value was 100.3. The Ki in experiment [2] came to 7.4 nM; in experiment [3], 20 nM; in experiment [5], 0.07 nM; in experiment [6], 0.19 nM. Besides, the “TR_FRET EKI BCLxL/WT selectivty ratio” value in experiment [3] is 270.3. In experiment [4], this compound had an IC50 of 0.0126 µM.
Turning to `Cc1c(C(=O)N(c2ccccc2)c2cnn(C(F)F)c2)cc(-c2cc3c(cc2C(=O)N2Cc4ccccc4C[C@H]2CN2CC4(CCC4)C2)CN(C(=O)Cc2ccc(OCCN4CCOCC4)cc2)CC3)n1C` [Example 206, 5-[7-[(3S)-3-(2-azaspiro[3.3]heptan-2-ylmethyl)-3,4-dihydro-1H-isoquinoline-2-carbonyl]-2-[2-[4-(2-morpholinoethoxy)phenyl]acetyl]-3,4-dihydro-1H-isoquinolin-6-yl]-N-[1-(difluoromethyl)pyrazol-4-yl]-1,2-dimethyl-N-phenyl-pyrrole-3-carboxamide], the “TR_FRET EKI G101V/WT selectivty ratio” value in experiment [1] turned out to be 321.5. For the same compound, the Ki in experiment [2] stood at 4.5 nM; in experiment [3], 107 nM; in experiment [5], 0.014 nM; in experiment [6] it was 0.09 nM. Besides, the “TR_FRET EKI BCLxL/WT selectivty ratio” value in experiment [3] is recorded as 7642.9. In experiment [4], this compound gave an IC50 of 0.047 µM.
Take `Cc1c(C(=O)N(c2ccccc2)c2cnn(CCN(C)C)c2)cc(-c2cc3c(cc2C(=O)N2Cc4ccccc4C[C@H]2C)CN(C(=O)Cc2ccc(OCCC4CCOCC4)cc2)CC3)n1C` [Example 207, N-[l-[2-(dimethylamino)ethyl]pyrazol-4-yl]-1,2-dimethyl-5-[7-[(3R)-3-methyl-3,4-dihydro-1H-isoquinoline-2-carbonyl]-2-[2-[4-(2-tetrahydropyran-4-ylethoxy)phenyl]acetyl]-3,4-dihydro-1H-isoquinolin-6-yl]-N-phenyl-pyrrole-3-carboxamide]: in experiment [1], the “TR_FRET EKI G101V/WT selectivty ratio” value is listed as 68.8. For the same compound, the Ki in experiment [2] stood at 1.4 nM; in experiment [3], 3 nM; in experiment [5], 0.02 nM; in experiment [6], 0.04 nM. The “TR_FRET EKI BCLxL/WT selectivty ratio” value in experiment [3] came to 150.0. The same compound showed an IC50 in experiment [4] of 0.023 µM.
`Cc1c(C(=O)N(c2ccccc2)c2cnn(C)c2)cc(-c2cc3c(cc2C(=O)N2Cc4ccccc4C[C@H]2C)CN(C(=O)Cc2ccc(OCCN(C)C)cc2)CC3)n1C` [Example 208, 5-[2-[2-[4-[2-(dimethylamino)ethoxy]phenyl]acetyl]-7-[(3R)-3-methyl-3,4-dihydro-1H-isoquinoline-2-carbonyl]-3,4-dihydro-1H-isoquinolin-6-yl]-1,2-dimethyl-N-(1-methylpyrazol-4-yl)-N-phenyl-pyrrole-3-carboxamide]: in experiment [1], the “TR_FRET EKI G101V/WT selectivty ratio” value stood at 83.8. The Ki in experiment [2] is 3.7 nM; in experiment [3], 8.8 nM; in experiment [5] it was 0.04 nM; in experiment [6] it was 0.12 nM. Further, the “TR_FRET EKI BCLxL/WT selectivty ratio” value in experiment [3] worked out at 200.0. Inhibition in experiment [4] was half-maximal at 0.0301 µM (IC50).
Turning to `COc1ccc(N(C(=O)c2cc(-c3cc4c(cc3C(=O)N3Cc5ccccc5C[C@H]3C)CN(C(=O)Cc3ccc(OCCN5CCOCC5)cc3)CC4)n(C)c2C)c2ccc(F)cc2)cc1C#N` [Example 209, N-(3-cyano-4-methoxy-phenyl)-N-(4-fluorophenyl)-1,2-dimethyl-5-[7-[(3R)-3-methyl-3,4-dihydro-1H-isoquinoline-2-carbonyl]-2-[2-[4-(2-morpholinoethoxy)phenyl]acetyl]-3,4-dihydro-1H-isoquinolin-6-yl]pyrrole-3-carboxamide], the “TR_FRET EKI G101V/WT selectivty ratio” value in experiment [1] is recorded as 47.5. The Ki in experiment [2] worked out at 3.8 nM; in experiment [3], 23 nM; in experiment [5], 0.08 nM; in experiment [6], 0.21 nM. Further, the “TR_FRET EKI BCLxL/WT selectivty ratio” value in experiment [3] turned out to be 291.1. In experiment [4], this compound showed a 50% inhibitory concentration (IC50) of 0.0486 µM.
For `CCn1cc(N(C(=O)c2cc(-c3cc4c(cc3C(=O)N3Cc5ccccc5C[C@H]3C)CN(C(=O)Cc3ccc(OCCN5CCOCC5)cc3)CC4)n(C)c2C)c2ccccc2)c(C)n1` [Example 210, N-(1-ethyl-3-methyl-pyrazol-4-yl)-1,2-dimethyl-5-[7-[(3R)-3-methyl-3,4-dihydro-1H-isoquinoline-2-carbonyl]-2-[2-[4-(2-morpholinoethoxy)phenyl]acetyl]-3,4-dihydro-1H-isoquinolin-6-yl]-N-phenyl-pyrrole-3-carboxamide], in experiment [1], the “TR_FRET EKI G101V/WT selectivty ratio” value was found to be 118.3. In addition, the Ki in experiment [2] amounted to 4.1 nM; in experiment [3] it was 29 nM; in experiment [5], 0.04 nM; in experiment [6] it was 0.11 nM. The “TR_FRET EKI BCLxL/WT selectivty ratio” value in experiment [3] was found to be 828.6. The compound further had an IC50 in experiment [4] of 0.0395 µM.
As for `Cc1c(C(=O)N(c2ccccc2)c2cnn(C(F)F)c2)cc(-c2cc3c(cc2C(=O)N2Cc4ccccc4C[C@H]2CF)CN(C(=O)Cc2ccc(OCCN4CCOCC4)cc2)CC3)n1C` [Example 211, N-[1-(difluoromethyl)pyrazol-4-yl]-5-[7-[(3S)-3-(fluoromethyl)-3,4-dihydro-1H-isoquinoline-2-carbonyl]-2-[2-[4-(2-morpholinoethoxy)phenyl]acetyl]-3,4-dihydro-1H-isoquinolin-6-yl]-1,2-dimethyl-N-phenyl-pyrrole-3-carboxamide], in experiment [1], the “TR_FRET EKI G101V/WT selectivty ratio” value worked out at 72.1. For the same compound, the Ki in experiment [2] is 5.3 nM; in experiment [3], 26 nM; in experiment [5] it was 0.07 nM; in experiment [6], 0.18 nM. In addition, the “TR_FRET EKI BCLxL/WT selectivty ratio” value in experiment [3] was determined as 351.4. Moreover, the IC50 in experiment [4] turned out to be 0.0157 µM.
For `Cc1c(C(=O)N(c2ccccc2)c2cnn(C(F)F)c2)cc(-c2cc3c(cc2C(=O)N2Cc4ccccc4C[C@H]2C)CN(C(=O)Cc2ccc(C#CCN4CCOCC4)cc2)CC3)n1C` [Example 212, N-[1-(difluoromethyl)pyrazol-4-yl]-1,2-dimethyl-5-[7-[(3R)-3-methyl-3,4-dihydro-1H-isoquinoline-2-carbonyl]-2-[2-[4-(3-morpholinoprop-1-ynyl)phenyl]acetyl]-3,4-dihydro-1H-isoquinolin-6-yl]-N-phenyl-pyrrole-3-carboxamide], in experiment [1], the “TR_FRET EKI G101V/WT selectivty ratio” value was found to be 37.0. In addition, the Ki in experiment [2] is 1.7 nM; in experiment [3], 4.8 nM; in experiment [5], 0.05 nM; in experiment [6], 0.13 nM. In addition, the “TR_FRET EKI BCLxL/WT selectivty ratio” value in experiment [3] worked out at 104.3. The IC50 in experiment [4] was found to be 0.006 µM.
